Assay [1] concerns the target Beta Secretase enzyme (BACE) (Homo sapiens, UniProt P56817). Description: In vitro enzymatic BACE FRET (fluorescence resonance energy transfer) assay. Type of assay: biochemical. A digest of the protocol:
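Fluorescence read after Tris quench (pH raised to neutrality) of a one-hour BACE reaction. Buffer: acetate 0.05 M, pH 4.2, with 100 uM genapol and 10% DMSO final; started by adding 50 nM FRET peptide substrate spanning the cleavage site.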

Assay [2] concerns Aβ40 in conditioned medium of cells stably expressing Amyloid Precursor Protein (APP). As to the kind of experiment: In vitro BACE cell-based assay (Aβ40 in conditioned medium, sandwich ELISA). A digest of the protocol: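 Secreted Aβ40 is captured with pAb40 and detected with biotinylated 6E10, read by europium time-resolved fluorescence. IC50 comes from percent inhibition versus concentration.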

Setting [3] is: average IC50, enzyme assay, read-out: BACE 1 FRET assay.
The mark [4] stands for this setting: Homo sapiens, HEK293, average IC50, read-out: HEK cell assay.
Where [5] appears, read: Homo sapiens, HEK293, average IC50, HEK cells, read-out: HEK cell assay.

Like-named read-outs stand apart in the source and are kept apart here.

Beta Secretase enzyme (BACE), sequence (P56817 46-501, species assumed): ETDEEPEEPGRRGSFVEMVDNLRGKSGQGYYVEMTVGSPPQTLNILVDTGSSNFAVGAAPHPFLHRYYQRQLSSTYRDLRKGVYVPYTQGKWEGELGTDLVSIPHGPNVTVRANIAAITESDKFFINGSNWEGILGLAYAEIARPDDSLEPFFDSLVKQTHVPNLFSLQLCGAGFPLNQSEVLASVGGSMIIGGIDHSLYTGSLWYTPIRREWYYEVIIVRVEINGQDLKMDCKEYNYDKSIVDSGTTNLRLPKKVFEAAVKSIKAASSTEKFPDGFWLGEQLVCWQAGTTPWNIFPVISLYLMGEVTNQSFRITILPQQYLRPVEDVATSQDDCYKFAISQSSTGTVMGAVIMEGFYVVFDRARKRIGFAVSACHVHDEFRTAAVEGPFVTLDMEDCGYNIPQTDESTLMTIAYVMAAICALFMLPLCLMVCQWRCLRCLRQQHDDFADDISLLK

Regarding `NC1=N[C@@]2(CO1)c1cc(-c3ccc(F)nc3)ccc1Oc1c(F)cc(N3CCOCC3)cc12` [Example 202, (4S)-4′-fluoro-7′-(6-fluoro-3-pyridinyl)-2′-(4-morpholinyl)spiro[1,3-oxazole-4,9′-xanthen]-2-amine], the results for the IC50 in assay [1] (setting [3]) and in assay [2] (setting [4]) were 0.0049 µM and 11.8 nM, respectively.
As to `COC(C)(C)C#Cc1cnc2c(c1)[C@@]1(COC(N)=N1)c1cc(-c3cncc(F)c3)c(F)cc1O2` [Example 642, (5R)-8-fluoro-7-(5-fluoro-3-pyridinyl)-3-(3-methoxy-3-methyl-1-butyn-1-yl)spiro[chromeno[2,3-b]pyridine-5,4′-[1,3]oxazol]-2′-amine], the IC50 was found to be 0.109 µM in assay [1] (setting [3]) and 435 nM in assay [2] (setting [5]).
The like results for `COC(C)(C)C#Cc1cnc2c(c1)[C@@]1(COC(N)=N1)c1cc(-c3cncnc3)c(F)cc1O2` [Example 644, (5R)-8-fluoro-3-(3-methoxy-3-methyl-1-butyn-1-yl)-7-(5-pyrimidinyl)spiro[chromeno[2,3-b]pyridine-5,4′-[1,3]oxazol]-2′-amine] were, in that order, 0.0682 µM and 228 nM.
In the case of `NC1=N[C@@]2(CO1)c1cc(-c3ccc(F)nc3)ccc1Oc1c(F)cc(C3=CCOCC3)cc12` [Example 260, (4S)-2′-(3,6-dihydro-2H-pyran-4-yl)-4′-fluoro-7′-(6-fluoro-3-pyridinyl)spiro[1,3-oxazole-4,9′-xanthen]-2-amine], the IC50 in assay [1] (setting [3]) came out at 0.0019 µM; in assay [2] (setting [4]), 10.9 nM.
For `CC1(C#Cc2cnc3c(c2)[C@]2(COC(N)=N2)c2cc(-c4cncc(C(F)(F)F)c4)ccc2O3)COC1` [Example 187, (5S)-3-((3-methyl-3-oxetanyl)ethynyl)-7-(5-(trifluoromethyl)-3-pyridinyl)spiro[chromeno[2,3-b]pyridine-5,4′-[1,3]oxazol]-2′-amine], the values for the IC50 in assay [1] (setting [3]) and in assay [2] (setting [4]) were 0.0029 µM and 11.6 nM, respectively.
As for `Cn1cc(-c2cnc3c(c2)[C@]2(CSC(N)=N2)c2cc(-c4cccnc4)ccc2O3)cn1` [Example 960, (5S)-3-(1-methyl-1H-pyrazol-4-yl)-7-(3-pyridinyl)spiro[chromeno[2,3-b]pyridine-5,4′-[1,3]thiazol]-2′-amine], the IC50 in assay [1] (setting [3]) amounted to 0.0037 µM; in assay [2] (setting [5]), 36 nM.
In the same order, the values of `NC1=N[C@@]2(CO1)c1cc(-c3cccnc3N3CCC(F)(F)CC3)ccc1Oc1ncc(N3CCC(F)(F)CC3)cc12` [Example 477, (5S)-3-(4,4-difluoro-1-piperidinyl)-7-(2-(4,4-difluoro-1-piperidinyl)-3-pyridinyl)spiro[chromeno[2,3-b]pyridine-5,4′-[1,3]oxazol]-2′-amine] are 0.33 µM and 1200 nM.
In the case of `NC1=N[C@@]2(CO1)c1cc(-c3cccnc3F)ccc1Oc1c(F)cc(OCCF)cc12` [Example 1043, (4S)-4′-fluoro-2′-(2-fluoroethoxy)-7′-(2-fluoro-3-pyridinyl)spiro[1,3-oxazole-4,9′-xanthen]-2-amine], the IC50 in assay [1] (setting [3]) stood at 0.001 µM; in assay [2] (setting [4]), 57 nM.
Regarding `NC1=N[C@@]2(CS1)c1cc(-c3ccc(F)nc3)ccc1Oc1ncc(C3=CCOCC3)cc12` [Example 966, (5S)-3-(3,6-dihydro-2H-pyran-4-yl)-7-(6-fluoro-3-pyridinyl)spiro[chromeno[2,3-b]pyridine-5,4′-[1,3]thiazol]-2′-amine], the IC50 is 0.0022 µM in assay [1] (setting [3]) and 32 nM in assay [2] (setting [5]).
With `NC1=N[C@]2(CO1)c1cc(C3=CCOCC3)cnc1Oc1ccc(-c3cccnc3F)c(F)c12` [Example 346, (5R)-3-(3,6-dihydro-2H-pyran-4-yl)-6-fluoro-7-(2-fluoro-3-pyridinyl)spiro[chromeno[2,3-b]pyridine-5,4′-[1,3]oxazol]-2′-amine], the values for the IC50 in assay [1] (setting [3]) and in assay [2] (setting [4]) were 0.0008 µM and 6.7 nM, respectively.
In the case of `CC1(C)C[C@H](c2cc(F)c3c(c2)[C@]2(COC(N)=N2)c2cc(-c4cnccn4)ccc2O3)CCO1` [Example 450, (4S)-2′-((4R)-2,2-dimethyltetrahydro-2H-pyran-4-yl)-4′-fluoro-7′-(2-pyrazinyl)spiro[1,3-oxazole-4,9′-xanthen]-2-amine], the IC50 in assay [1] (setting [3]) came to 0.0024 µM; in assay [2] (setting [5]), 17.7 nM.
On to `CC1(C#Cc2cnc3c(c2)[C@@]2(COC(N)=N2)c2cc(-c4cncc(Cl)c4)c(F)cc2O3)COC1` [Example 625, (5R)-7-(5-chloro-3-pyridinyl)-8-fluoro-3-((3-methyl-3-oxetanyl)ethynyl)spiro[chromeno[2,3-b]pyridine-5,4′-[1,3]oxazol]-2′-amine], for which the results for the IC50 in assay [1] (setting [3]) and in assay [2] (setting [5]) were 0.901 µM and 2210 nM, respectively.
In the same order, the values of `NC1=N[C@@]2(CS1)c1cc(-c3cncnc3)c(F)cc1Oc1c(F)cc(C3=CCCOC3)cc12` [Example 873, (4S)-7′-(5,6-dihydro-2H-pyran-3-yl)-3′,5′-difluoro-2′-(5-pyrimidinyl)spiro[1,3-thiazole-4,9′-xanthen]-2-amine] are 0.0003 µM and 7 nM.
Take “(5R)-7-bromo-3-fluoro-1-methoxyspiro[chromeno[2,3-c]pyridine-5,4′-[1,3]oxazol]-2′-amine, (5S)-7-bromo-3-fluoro-1-methoxyspiro[chromeno[2,3-c]pyridine-5,4′-[1,3]oxazol]-2′-amine [Example 846]”: the IC50 in assay [1] (setting [3]) is 0.0014 µM; in assay [2] (average IC50, read-out: HEK cell assay), 14 nM.
On to `COCC1SC(N)=N[C@@]12c1cc(-c3cccnc3F)ccc1Oc1cnc(-c3ccnc(F)c3)cc12` (stereo partly drawn) [Example 1094, (5R)-7-(2-fluoro-3-pyridinyl)-3-(2-fluoro-4-pyridinyl)-5′-(methoxymethyl)spiro[chromeno[2,3-c]pyridine-5,4′-[1,3]thiazol]-2′-amine], for which the IC50 in assay [1] (setting [3]) was 0.0043 µM; in assay [2] (setting [5]) it was 128 nM.
For the molecule `NC1=N[C@@]2(CO1)c1cc(-c3cc(Cl)cnc3F)ccc1Oc1cnc(C3=CCOCC3)cc12` [Example 361, (5S)-7-(5-chloro-2-fluoro-3-pyridinyl)-3-(3,6-dihydro-2H-pyran-4-yl)spiro[chromeno[2,3-c]pyridine-5,4′-[1,3]oxazol]-2′-amine], the IC50 in assay [1] (setting [3]) was found to be 0.0005 µM; in assay [2] (setting [4]) it was 6.1 nM.
Consider `COc1ncccc1-c1ccc2c(c1)[C@@]1(COC(N)=N1)c1cc(N3CCC(F)(F)CC3)nc(OC)c1O2` [Example 852, (5S)-3-(4,4-difluoro-1-piperidinyl)-1-methoxy-7-(2-methoxy-3-pyridinyl)spiro[chromeno[2,3-c]pyridine-5,4′-[1,3]oxazol]-2′-amine], for which the IC50 amounted to 0.0926 µM in assay [1] (setting [3]) and 609 nM in assay [2] (setting [5]).
The like results for `NC1=N[C@@]2(CO1)c1cc(-c3cccc(Cl)c3)ccc1Oc1cnc(-c3ccc(F)c(F)c3)cc12` [Example 550, (5S)-7-(3-chlorophenyl)-3-(3,4-difluorophenyl)spiro[chromeno[2,3-c]pyridine-5,4′-[1,3]oxazol]-2′-amine] were, in that order, 0.0005 µM and 127 nM.
Take `NC1=N[C@@]2(CO1)c1cc(OCc3cccc(Br)c3)ccc1Oc1ncc(-c3cccnc3)cc12` [Example 979, (5S)-7-((3-bromobenzyl)oxy)-3-(3-pyridinyl)spiro[chromeno[2,3-b]pyridine-5,4′-[1,3]oxazol]-2′-amine]: the values for the IC50 in assay [1] (setting [3]) and in assay [2] (setting [4]) were 0.0006 µM and 23 nM, respectively.
With `CC1(C)C=C(c2cc3c(cn2)Oc2ccc(-c4cncnc4)cc2[C@@]32COC(N)=N2)CCO1` [Example 678, (5S)-3-(6,6-dimethyl-3,6-dihydro-2H-pyran-4-yl)-7-(5-pyrimidinyl)spiro[chromeno[2,3-c]pyridine-5,4′-[1,3]oxazol]-2′-amine], the IC50 in assay [1] (BACE 1 FRET assay (uM)) worked out at 0.0009 µM; in assay [2] (average IC50, HEK cells), 8 nM.
For the molecule `NC1=N[C@@]2(CO1)c1cc(-c3cccnc3F)ccc1Oc1c(F)cc(-c3ccnnc3)cc12` [Example 686, (4S)-4′-fluoro-7′-(2-fluoro-3-pyridinyl)-2′-(4-pyridazinyl)spiro[1,3-oxazole-4,9′-xanthen]-2-amine], the values for the IC50 in assay [1] (setting [3]) and in assay [2] (setting [5]) were 0.0008 µM and 12 nM, respectively.
`NC1=N[C@@]2(CO1)c1cc(-c3cccnc3)ccc1Oc1c2cc(-c2cccnc2)[nH]c1=O` [Example 107, (S)-2′-amino-3,7-di(pyridin-3-yl)-5′H-spiro[chromeno[2,3-c]pyridine-5,4′-oxazol]-1(2H)-one]: the IC50 in assay [1] (setting [3]) amounted to 0.0077 µM; in assay [2] (setting [5]), 180 nM.
As to `NC1=N[C@@]2(CO1)c1cc(-c3cccnc3F)ccc1Oc1c(F)cc(C3=CCOC3)cc12` [Example 291, (4S)-2′-(2,5-dihydro-3-furanyl)-4′-fluoro-7′-(2-fluoro-3-pyridinyl)spiro[1,3-oxazole-4,9′-xanthen]-2-amine], the IC50 was found to be 0.0006 µM in assay [1] (setting [3]) and 8 nM in assay [2] (setting [4]).
In the same order, the values of `Cc1ccn(-c2cnc3c(c2)[C@]2(COC(N)=N2)c2cc(-c4cccnc4)ccc2O3)n1` [Example 1022, (5S)-3-(3-methyl-1H-pyrazol-1-yl)-7-(3-pyridinyl)spiro[chromeno[2,3-b]pyridine-5,4′-[1,3]oxazol]-2′-amine] are 0.0072 µM and 106 nM.
The like results for `NC1=N[C@@]2(CO1)c1cc(C#CC3CC3)ccc1Oc1ncc(N3CCC(F)(F)CC3)cc12` [Example 181, (5S)-7-(cyclopropylethynyl)-3-(4,4-difluoro-1-piperidinyl)spiro[chromeno[2,3-b]pyridine-5,4′-[1,3]oxazol]-2′-amine] were, in that order, 0.0057 µM and 27.1 nM.
The like results for `Cc1cc(-c2cc3c(cn2)Oc2ccc(-c4cccnc4F)cc2[C@@]32COC(N)=N2)on1` [Example 364, (5S)-7-(2-fluoro-3-pyridinyl)-3-(3-methyl-5-isoxazolyl)spiro[chromeno[2,3-c]pyridine-5,4′-[1,3]oxazol]-2′-amine] were, in that order, 0.0069 µM and 62.5 nM.

Values taken from patent US8883782B2, “Spiro-tetracyclic ring compounds as beta-secretase modulators and methods of use” (Amgen Inc., priority 2010, dated 2014).
